target: T1, human CCR5 (Homo sapiens, UniProt P51681); assay: Inhibition of [125I]-RANTES binding to CCR5/CHO cells (CCR5 antagonist activity); details: 40 min, test compound 1 μM, [125I]-RANTES 100 pM, CCR5/CHO strains, room temperature, read-out: Binding Inhibitory Ratio (%)
T1 construct: expressed in transfected cells
Method: Cloning of a CCR5 gene was conducted from human spleen cDNA by a PCR method. Using 0.5 ng of spleen cDNA (Toyobo Co., Ltd., QUICK-Clone cDNA) as a template, the PCR reaction was carried out in a DNA Thermal Cycler 480 (Perkin Elmer) using a TaKaRa EX Taq (Takara Shuzo Co., Ltd.) (reaction conditions: 30 cycles of treatments at 95° C. for 1 minute, at 60° C. for 1 minute, and at 75° C. for 5 minutes) by adding 25 pmol of primers, SEQ ID NO. 1 (sequence length: 34; sequence type: nucleic acid; number of chains: a single chain; topology: linear; sequence kind: other nucleic acid, synthetic DNA) described in Experimental Example (1) of WO 99/32100, and SEQ ID NO. 2 (sequence length: 34; sequence type: nucleic acid; number of chains: a single chain; topology: linear; sequence kind: other nucleic acid, synthetic DNA) described in Experimental Example (1) of WO 99/32100, respectively, which were prepared by referring to the base sequence of the CCR5 gene described by Samson et al. (Biochemistry 35 (11), 3362-3367 (1996)). The PCR products were subjected to agarose gel electrophoresis to collect DNA fragments of about 1.0 kb. Then, the CCR5 gene was cloned using an Original TA Cloning Kit (Funakoshi Co., Ltd.).
The plasmids obtained above were digested with restriction enzymes XbaI (Takara Shuzo Co., Ltd.) and BamHI (Takara Shuzo Co., Ltd.), and subjected to agarose gel electrophoresis to collect DNA fragments of about 1.0 kb. The DNA fragments and a plasmid pcDNA3.1 (Funakoshi Co., Ltd.) for expression in animal cells, which was previously digested with XbaI and BamHI, were mixed and ligated by DNA Ligation Kit Ver.2 (Takara Shuzo Co., Ltd.). Transformation of E. coli JM109 competent cells (Takara Shuzo Co., Ltd.) gave plasmid pCKR5.
CHO-K1 cells grown in a 750 ml tissue culture flask (Becton Dickinson) using Ham's F12 medium (Nihon Pharmaceutical Co., Ltd.) containing 10% fetal bovine serum (Lifetech Oriental) were collected from the flask by using 0.5 g/L trypsin-0.2 g/L EDTA (Lifetech Oriental). The cells were then washed with PBS (Lifetech Oriental), centrifuged (1000 rpm, 5 minutes), and suspended in PBS. Next, DNA was introduced into the cells using Gene Pulser (Bio-Rad Laboratories Inc.) under the following conditions. Namely, 8×10^6 cells and 10 μg of plasmid pCKR5 for expression of human CCR5 were added into a cuvette of a 0.4 cm-gap, and electroporation was carried out at an electric voltage of 0.25 kV and a capacitance of 960 μF. Subsequently, the cells were transferred into Ham's F12 medium containing 10% fetal bovine serum, and incubated for 24 hours. The cells were again collected, centrifuged, and then suspended in Ham's F12 medium containing 10% fetal bovine serum and Geneticin (Lifetech Oriental) at a concentration of 500 μg/ml. The suspension of cells was diluted to a concentration of 10^4 cells/ml, and inoculated on a 96-well plate (Becton Dickinson) to give Geneticin-resistant strains.
Subsequently, the Geneticin-resistant strains were cultured in the 96-well plate (Becton Dickinson), and then CCR5-expressing cells were selected from the resistant strains. Namely, an assay buffer (Ham's F12 medium containing 0.5% BSA, and 20 mM HEPES (Wako Pure Chemical Industries, Ltd., pH 7.2)) containing 200 pM [^125I]-RANTES (Amersham) as a ligand was added to each well and the binding reaction was carried out at room temperature for 40 minutes. Each well plate containing the cells was washed with ice-cooled PBS, and then to each well was added 1 M NaOH in an amount of 50 μl/well, which was stirred. The cells to which the ligand bound specifically, i.e., CCR5/CHO strains, were selected by measurement of radioactivity by γ-counter.
The CCR5/CHO strains were inoculated on a 96-well microplate at a concentration of 5×10^4 cells/well, respectively and were cultured for 24 hours. […]

T1 sequence (P51681 whole entry): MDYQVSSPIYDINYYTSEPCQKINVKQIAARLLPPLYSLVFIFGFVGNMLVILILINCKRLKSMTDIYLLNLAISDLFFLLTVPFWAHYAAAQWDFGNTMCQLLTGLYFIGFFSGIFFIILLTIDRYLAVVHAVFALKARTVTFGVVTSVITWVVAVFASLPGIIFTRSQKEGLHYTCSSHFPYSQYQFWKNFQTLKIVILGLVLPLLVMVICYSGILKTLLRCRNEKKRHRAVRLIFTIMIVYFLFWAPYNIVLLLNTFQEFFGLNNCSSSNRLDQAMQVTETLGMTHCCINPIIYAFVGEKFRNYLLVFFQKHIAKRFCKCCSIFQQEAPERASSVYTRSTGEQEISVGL

Compared with `CCCCOCCOc1ccc(-c2ccc(N3CCC(C(N)=O)C3)c(/C=C(\C)C(=O)Nc3ccc([S@@+]([O-])Cc4cncn4CCC)cc3)c2)cc1` (some centres unmarked) [Compound 43, (Ss)-(2E)-3-[4′-(2-butoxyethoxy)-4-(3-carbamoylpyrrolidin-1-yl)-1,1′-biphenyl-3-yl]-2-methyl-N-[4-[[(1-propyl-1H-imidazol-5-yl)methyl]sulfinyl]phenyl]acrylamide], `CCCCOCCOc1ccc(-c2ccc(N3CCC(C(=O)O)C3)c(/C=C(\C)C(=O)Nc3ccc([S@@+]([O-])Cc4cncn4CCC)cc3)c2)cc1` (single isomer, unassigned) [Compound 59, (Ss)-(2E)-3-[4′-(2-butoxyethoxy)-4-(3-carboxypyrrolidin-1-yl)-1,1′-biphenyl-3-yl]-2-methyl-N-[4-[[(1-propyl-1H-imidazol-5-yl)methyl]sulfinyl]phenyl]acrylamide] is higher in inhibition at 1 µM: 86% for the first, 89% for the second.

Compared with `CCCCOCCOc1ccc(-c2cnc(N3CCCC3)c(/C=C(\C)C(=O)Nc3ccc([S@@+]([O-])Cc4cncn4CCC)cc3)c2)cc1` [Compound 47, (S)-(2E)-3-[5-[4-(2-butoxyethoxy)phenyl]-2-pyrrolidin-1-ylpyridin-3-yl]-2-methyl-N-[4-[[(1-propyl-1H-imidazol-5-yl)methyl]sulfinyl]phenyl]acrylamide], `CCCCOCCOc1ccc(-c2cnc(N3CCC(CO)C3)c(/C=C(\C)C(=O)Nc3ccc([S@@+]([O-])Cc4cncn4CCC)cc3)c2)cc1` (some centres unmarked) [Compound 50, (Ss)-(2E)-3-[5-[4-(2-butoxyethoxy)phenyl]-2-[3-(hydroxymethyl)pyrrolidin-1-yl]pyridin-3-yl]-2-methyl-N-[4-[[(1-propyl-1H-imidazol-5-yl)methyl]sulfinyl]phenyl]acrylamide] is higher in inhibition at 1 µM: 96% for the first, 100% for the second.

Compared with `CCCCOCCOc1ccc(-c2ccc(N3CCC(COC(C)=O)C3)c(/C=C(\C)C(=O)Nc3ccc([S@@+]([O-])Cc4cncn4CCC)cc3)c2)cc1` (some centres unmarked) [Compound 38, (Ss)-(2E)-3-[4-[3-(acetoxymethyl)pyrrolidin-1-yl]-4′-(2-butoxyethoxy)-1,1′-biphenyl-3-yl]-2-methyl-N-[4-[[(1-propyl-1H-imidazol-5-yl)methyl]sulfinyl]phenyl]acrylamide], `CCCCOCCOc1ccc(-c2ccc(N3CCC(CO)C3)c(/C=C(\C)C(=O)Nc3ccc([S@@+]([O-])Cc4cncn4CCC)cc3)c2)cc1` (some centres unmarked) [Compound 39, (Ss)-(2E)-3-[4′-(2-butoxyethoxy)-4-[3-(hydroxymethyl)pyrrolidin-1-yl]-1,1′-biphenyl-3-yl]-2-methyl-N-[4-[[(1-propyl-1H-imidazol-5-yl)methyl]sulfinyl]phenyl]acrylamide] is higher in inhibition at 1 µM: 93% for the first, 99% for the second.

First: CCCCOCCOc1ccc(-c2cnc(N3CCC(COC(C)=O)C3)c(/C=C(\C)C(=O)Nc3ccc([S@@+]([O-])Cc4cncn4CCC)cc3)c2)cc1 (some centres unmarked) [Compound 49, (Ss)-(2E)-3-[2-[3-(acetoxymethyl)pyrrolidin-1-yl]-5-[4-(2-butoxyethoxy)phenyl]pyridin-3-yl]-2-methyl-N-(4-[[(1-propyl-1H-imidazol-5-yl)methyl]sulfinyl]phenyl]acrylamide]
Second: CCCCOCCOc1ccc(-c2ccc(N3CCC(CC(=O)OCC)C3)c(/C=C(\C)C(=O)Nc3ccc([S@@+]([O-])Cc4cncn4CCC)cc3)c2)cc1 (some centres unmarked) [Compound 61, (Ss)-(2E)-3-[4′-(2-butoxyethoxy)-4-[3-(2-ethoxy-2-oxoethyl)pyrrolidin-1-yl]-1,1′-biphenyl-3-yl]-2-methyl-N-(4-[[(1-propyl-1H-imidazol-5-yl)methyl]sulfinyl]phenyl]acrylamide]
The inhibition at 1 µM of the first is higher: 100% for the first, 94% for the second.

`CCCCOCCOc1ccc(-c2ccc(N3CCC(C(=O)OC)C3)c(/C=C(\C)C(=O)Nc3ccc([S@@+]([O-])Cc4cncn4CCC)cc3)c2)cc1` (single isomer, unassigned) [Compound 57, (Ss)-(2E)-3-[4′-(2-butoxyethoxy)-4-[3-(methoxycarbonyl)pyrrolidin-1-yl]-1,1′-biphenyl-3-yl]-2-methyl-N-[4-[[(1-propyl-1H-imidazol-5-yl)methyl]sulfinyl]phenyl]acrylamide] and `CCCCOCCOc1ccc(-c2ccc(N3CCC(C)C3)c(/C=C(\C)C(=O)Nc3ccc([S@@+]([O-])Cc4cncn4CCC)cc3)c2)cc1` (some centres unmarked) [Compound 23, (Ss)-(2E)-3-[4′-(2-butoxyethoxy)-4-(3-methylpyrrolidin-1-yl)-1,1′-biphenyl-3-yl]-2-methyl-N-[4-[[(1-propyl-1H-imidazol-5-yl)methyl]sulfinyl]phenyl]acrylamide] are the same in inhibition at 1 µM: 100% for the first, 100% for the second.

`CCCCOCCOc1ccc(-c2ccc(N3CCC(C(=O)OC)C3)c(/C=C(\C)C(=O)Nc3ccc([S@@+]([O-])Cc4cncn4CCC)cc3)c2)cc1` (some centres unmarked) [Compound 40, (Ss)-(2E)-3-[4′-(2-butoxyethoxy)-4-[3-(methoxycarbonyl)pyrrolidin-1-yl]-1,1′-biphenyl-3-yl]-2-methyl-N-[4-[[(1-propyl-1H-imidazol-5-yl)methyl]sulfinyl]phenyl]acrylamide] and `CCCCOCCOc1ccc(-c2ccc(N3CCCC3C)c(/C=C(\C)C(=O)Nc3ccc([S@@+]([O-])Cc4cncn4CCC)cc3)c2)cc1` (some centres unmarked) [Compound 17, (Ss)-(2E)-3-[4′-(2-butoxyethoxy)-4-(2-methylpyrrolidin-1-yl)-1,1′-biphenyl-3-yl]-2-methyl-N-[4-[[(1-propyl-1H-imidazol-5-yl)methyl]sulfinyl]phenyl]acrylamide] are the same in inhibition at 1 µM: 100% for the first, 100% for the second.

Work on `CCCCOCCOc1ccc(-c2ccc(N3CCCC3)c(/C(C)=C/C(=O)Nc3ccc([S@@+]([O-])Cc4cncn4CCC)cc3)c2)cc1` [Compound 35, (S)-(2E)-3-[4′-(2-butoxyethoxy)-4-pyrrolidin-1-yl-1,1′-biphenyl-3-yl]-N-[4-[[(1-propyl-1H-imidazol-5-yl)methyl]sulfinyl]phenyl]but-2-enoic amide] yielded an inhibition at 1 µM of 100%.

same assay, conditions: test compound 1 μM; [125I]-RANTES 100 pM; CCR5/CHO strains; room temperature, 40 minutes

Compared with `CCCCOCCOc1ccc(-c2cc(/C=C(\C)C(=O)Nc3ccc([S@@+]([O-])Cc4cncn4CCC)cc3)c3c(c2)CCCN3C)cc1` [Compound 29, (S)-(2E)-3-[6-[4-(2-butoxyethoxy)phenyl]-1-methyl-1,2,3,4-tetrahydroquinolin-8-yl]-2-methyl-N-[4-[[(1-propyl-1H-imidazol-5-yl)methyl]sulfinyl]phenyl]-2-acrylic amide], `CCCCOCCOc1ccc(-c2ccc(N3CCC(O)C3)c(/C=C(\C)C(=O)Nc3ccc([S@@+]([O-])Cc4cncn4CCC)cc3)c2)cc1` (some centres unmarked) [Compound 26] is lower in “Binding Inhibitory Ratio (%)” value: 100% for the first, 90% for the second.

Compared with `CCCCOCCOc1ccc(-c2ccc(N3CCC(C(=O)O)C3)c(/C=C(\C)C(=O)Nc3ccc([S@@+]([O-])Cc4cncn4CCC)cc3)c2)cc1` (single isomer, unassigned) [Compound 60, (Ss)-(2E)-3-[4′-(2-butoxyethoxy)-4-(3-carboxypyrrolidin-1-yl)-1,1′-biphenyl-3-yl]-2-methyl-N-[4-[[(1-propyl-1H-imidazol-5-yl)methyl]sulfinyl]phenyl]acrylamide], `CCCCOCCOc1ccc(-c2ccc(N3CCC(C(=O)OC)C3)c(/C=C(\C)C(=O)Nc3ccc([S@@+]([O-])Cc4cncn4CCC)cc3)c2)cc1` (single isomer, unassigned) [Compound 58, (Ss)-(2E)-3-[4′-(2-butoxyethoxy)-4-[3-(methoxycarbonyl)pyrrolidin-1-yl]-1,1′-biphenyl-3-yl]-2-methyl-N-[4-[[(1-propyl-1H-imidazol-5-yl)methyl]sulfinyl]phenyl]acrylamide] is higher in “Binding Inhibitory Ratio (%)” value: 91% for the first, 95% for the second.

Reference: patent US20060160864A1, “Acrylamide derivative, process for producing the same, and use” (priority 2003, published 2006)
